Source: patent publication US11369592B2 (priority 2020, dated 2022)
Where two headings read alike, the source gives them in different places.

What was measured:
[1] = over the tolerated dose range; cited from earlier work
[2] = system: MucilAir™-Pool human airway epithelium infected with SARS-CoV-2; test: Tissue integrity (TEER) upon SARS-CoV-2 infection in MucilAir-Pool, Phase 2; assay type: cell-based
[3] = system: Influenza H5 N1/Duck/MN/1525/81
[4] = system: Influenza A H1N1/California/07/2009; test: CPE inhibition assay (visual and neutral red); conditions: for EC50: Influenza A virus, H1N1; for EC50 (cell spans EC50, CC50, SI): MA-104 or MDCK, Visual or Neutral Red, concentration range 0.3-300
[5] = system: Parainfluenza virus 3/14702; test: CPE inhibition assay (visual and neutral red); conditions: for EC50 (cell spans EC50, CC50, SI): MA-104 or MDCK, Visual or Neutral Red, concentration range 0.3-300
[6] = system: MucilAir™-Pool human airway epithelium; test: Cilia beating frequency (CBF) on MucilAir-Pool, Phase 1; assay type: cell-based; conditions: Day 3, room temperature
Method: Effect on cilia included cilia motion: Cilia Beating Frequency (CBF).
(§1) Repeated basolateral exposure once a day of test compounds on MucilAir™-Pool. Transepithelial electrical resistance (TEER) was assessed each day. LDH release indicating cytotoxicity, was measured at Day 2 and 3 (24 hours accumulation). Cilia beating frequency (CBF) was measured once, at the end of the experiment, at Day 3. (FIG. 7)
(§2) Number of concentrations: 3 doses • Celgosivir=100, 30 and […] on basolateral side in 0.2% DMSO and 2% fetal bovine serum
Cilia beating frequency was monitored using a MAKO G030B camera connected to a ZEISS Primovert microscope with a 5× objective.
CBF measurement is based on the capture of 256 frames at high frequency rate (125 frames per second) at room temperature via the specific package of software. The frequency is expressed as Hertz and was calculated using an Epithelix software.

SARS-CoV-2 [7] = test: SARS-CoV-2 apical infectious titre in MucilAir-Pool (TCID50); conditions: for reduction of SARS-CoV-2 titre at apical side: 48 hours
[8] = system: Influenza B/Brisbane/60/2008; test: CPE inhibition assay (visual and neutral red); conditions: for EC50: Influenza B virus; for EC50 (cell spans EC50, CC50, SI): MA-104 or MDCK, Visual or Neutral Red, concentration range 0.3-300
[9] = system: MucilAir™-Pool human airway epithelium; test: Lactate dehydrogenase (LDH) cytotoxicity assay on MucilAir-Pool, Phase 1; assay type: cell-based
Method: (§3) The testing strategies includes basolateral exposure of test compounds on MucilAir™-Pool.
(§4) Global markers of Toxicity included (1) Tissue integrity monitoring: Trans-epithelial electrical resistance (TEER) measurement and (2) Cytotoxicity: Lactate dehydrogenase (LDH) assay.
as §1, with “7) […]” for “7)”
Lactate dehydrogenase is a stable cytoplasmic enzyme that is rapidly released into the culture medium upon rupture of the plasma membrane. 100 μL basolateral medium collected at each time-point was incubated with the reaction mixture of the Cytotoxicity Detection Kit^PLUS, following manufacturer's instructions (Sigma, Roche, 11644793001). The amount of the released LDH was then quantified by measuring the absorbance of each sample at 490 nm with a microplate reader. To determine the percentage of cytotoxicity, the following equation was used (A=absorbance values): Cytotoxicity (%)=(A (exp value)−A (low control)/A (high control)−A (low control))*100
The high control value was obtained by 10% Triton X-100 treatment 24 hours prior to the assay. Triton X-100 causes a massive LDH release and corresponds to 100% cytotoxicity.

[10] = Pharmacokinetic simulations using CELADEN castanospermine parameters; set-up: species or system human; conditions: linear extrapolation
Method: It is known that a steady state minimum castanospermine concentration of 400 nanograms/ml is associated with a 50 mg/kg BID dose in mice and that the antiviral effect of celgosivir in vivo seems to be correlated with the minimum steady state concentration of castanospermine. […] International Publication No. WO 2014/143907 discloses pharmacokinetic parameters for castanospermine for the CELADEN study. […] Extrapolating linearly, therefore, the minimum protective dose (achieving 400 nanograms/ml steady state minimum) is approximately 40 mg every 6h, 75 mg every 8 h and 225 mg every 12 h. Further, WO 2014/143907 discloses that the CELADEN study regimen produce a steady state maximum castanospermine concentration of 5100 nanograms/ml. […] The FDA has published generic scaling factors to adjust mg/kg dosing in animals to mg/kg dosing in humans. Generically for mice, that scaling factor is 12. Therefore, 50 mg/kg BID is equivalent to a dose of 4.2 mg/kg BID in humans, which for a 60 kg human is equivalent to 250 mg. The same dose administered three or four times daily is equivalent to 167 mg and 125 mg and 2.8 and 2.1 mg/kg respectively. In a 60 kg human, the maximum single dose is 6.7 mg/kg, and the maximum daily dose is 10 mg/kg.

endogenous esterases = conditions: Kang (1996) Glycobiology; cited from earlier work
Human rhinovirus 14/1059 = test: CPE inhibition assay (visual and neutral red); conditions: for EC50 (cell spans EC50, CC50, SI): MA-104 or MDCK, Visual or Neutral Red, concentration range 0.3-300; for EC50: Rhinovirus B
[11] = system: MucilAir™-Pool human airway epithelium; test: Tissue integrity (TEER) of uninfected MucilAir-Pool, Phase 1; assay type: cell-based; conditions: all three tested concentrations, up to three days; threshold 100 Ω·cm^2
Method: as §3, §4, §1, §2
TEER is a dynamic parameter that reflects the state of epithelia and is typically between 200 to 600 Ω·cm^2. An increase of the TEER value reflects a blockage of the ion channel activities. A notable decrease of the TEER values (but >100 Ω·cm^2) could be observed in certain cases, reflecting an activation of the ion channels. Disruption of cellular junction or holes in the epithelia result in TEER values below 100 Ω·cm^2. […]
After addition of 200 μl of 0.9% saline solution to the apical compartment of MucilAir™ cultures, resistance was measured with an EVOMX volt-ohm-meter (World Precision Instruments UK, Stevenage) for each condition. […]

[12] = system: Influenza H5 N1/Duck/MN/1525/81; test: organism not typed
[13] = system: Influenza B/Florida/4/2006; test: CPE inhibition assay (visual and neutral red); conditions: for EC50: Influenza B virus; for EC50 (cell spans EC50, CC50, SI): MA-104 or MDCK, Visual or Neutral Red, concentration range 0.3-300
SARS-CoV-2 [14] = test: SARS-CoV-2 apical replication in MucilAir-Pool (genome copies ORF1b-nsp14, Taqman RT-PCR); assay type: cell-based
[15] = cited from earlier work
[16] = mice; 50 mg/kg BID dose; cited from earlier work

CCCC(=O)O[C@H]1CN2CC[C@H](O)[C@@H]2[C@@H](O)[C@@H]1O [Celgosivir, 6-O-butanoyl castanospermine]
pharmacokinetics versus dose [1]: linear with dose | effect against virus-induced cytopathology ([2]; 3 microM): diminished extent | SARS-CoV-2 induced decrease of TEER ([2]; 30 and 100 μM, 48 and 72 hours post-inoculation): prevented | effect against virus-induced cytopathology ([2]; 30 and 100 microM): protective effective | EC50 (cell spans EC50, CC50, SI) [3]: Not active | EC50 [4]: > 300 µM | EC50 (cell spans EC50, CC50, SI) [4]: Not active | EC50 [5]: > 300 µM | EC50 (cell spans EC50, CC50, SI) [5]: Not active | cilia motion (cilia beating frequency) [6]: did not modify significantly | reduction of SARS-CoV-2 titre at apical side (SARS-CoV-2 [7]; 30 mM (so in the source)): 1 log10 | reduction of SARS-CoV-2 titre at apical side (SARS-CoV-2 [7]; 100 mM (so in the source)): 1.9 log10 | yield of viral progeny (SARS-CoV-2 [7]; 3 microM): diminished extent | yield of viral progeny (SARS-CoV-2 [7]; 30 and 100 microM): decreased | reducing effect on SARS-CoV-2 titre (SARS-CoV-2 [7]; 72 hours, concentration not given): 1.1 log | EC50 [8]: > 300 µM | EC50 (cell spans EC50, CC50, SI) [8]: Not active | cytotoxicity (LDH release) ([9]; Day 2 and 3, threshold limit 5% cytotoxicity): No cytotoxicity | evidence of cytotoxicity (TEER, cytotoxicity and CBF values versus controls) ([9]; concentrations at or below 100 microM): did not exhibit evidence of cytoxicity | minimum protective dose (achieving 400 nanograms/ml steady state minimum) ([10]; every 6h): approximately 40 mg | minimum protective dose (achieving 400 nanograms/ml steady state minimum) ([10]; every 8 h): ~75 mg | minimum protective dose (achieving 400 nanograms/ml steady state minimum) ([10]; every 12 h): ~225 mg | conversion to castanospermine (endogenous esterases): rapidly converted by endogenous esterases to castanospermine | crossing of cell membranes (endogenous esterases): readily crosses cell membranes | EC50 (cell spans EC50, CC50, SI) (Human rhinovirus 14/1059): Not active | EC50 (Human rhinovirus 14/1059): > 300 µM | Epithelial barrier function (TEER) [11]: > 100 Ω·cm^2 | EC50 [12]: > 300 µM | EC50 [13]: > 300 µM | EC50 (cell spans EC50, CC50, SI) [13]: Not active | reduction of viruses (genome copies) (SARS-CoV-2 [14]; 30 mM (so in the source), 48 hours): 1.2 log10 | reduction of viruses (genome copies) (SARS-CoV-2 [14]; 30 mM (so in the source), later time point (72 hours)): 0.9 log10 | reduction of viruses (genome copies) (SARS-CoV-2 [14]; 100 mM (so in the source), 48 hours): 1.4 log10 | reduction of viruses (genome copies) (SARS-CoV-2 [14]; 100 mM (so in the source), later time point (72 hours)): 1 log10 | inhibition of SARS-CoV-2 replication, dose relation (SARS-CoV-2 [14]; 3 doses, basolateral once a day for 3 days): dose dependent inhibition | SARS-CoV-2 replication (SARS-CoV-2 [14]; 3 microM): diminished extent | SARS-CoV-2 replication (SARS-CoV-2 [14]; 30 and 100 microM): decreased | adverse event profile ([15]; CELADEN study dose): higher incidence of GI effects, but not increased severity | maximum daily dose as a total dose ([15]; human, in theory): 600 mg | maximum dose as a single dose ([15]; human, in theory): 400 mg

NC(=O)c1ncn([C@@H]2O[C@H](CO)[C@@H](O)[C@H]2O)n1 [Ribavirin, reference compound]
EC50 [4]: < 10 µM | EC50 [5]: < 10 µM | EC50 [8]: < 10 µM | EC50 (Human rhinovirus 14/1059): < 10 µM | EC50 [12]: < 10 µM | EC50 [13]: < 10 µM

O[C@H]1[C@H](O)[C@@H](O)CN2CC[C@H](O)[C@H]12 [castanospermine, (1S,6S,7R,8aR)-Tetrahydroxyoctahydroindolizine]
EC50 (cell spans EC50, CC50, SI) ([3]; MA-104 or MDCK, Visual or Neutral Red, concentration range 0.3-300): Not active | EC50 [4]: > 300 µM | EC50 (cell spans EC50, CC50, SI) [4]: Not active | EC50 [5]: > 300 µM | EC50 (cell spans EC50, CC50, SI) [5]: Not active | EC50 [8]: > 300 µM | EC50 (cell spans EC50, CC50, SI) [8]: Not active | EC50 (cell spans EC50, CC50, SI) (Human rhinovirus 14/1059): Not active | EC50 (Human rhinovirus 14/1059): > 300 µM | EC50 [12]: > 300 µM | EC50 [13]: > 300 µM | EC50 (cell spans EC50, CC50, SI) [13]: Not active | steady state minimum castanospermine concentration [16]: 400 nanograms/ml | steady state maximum castanospermine concentration ([15]; CELADEN study regimen): 5100 nanograms/ml

Triton X-100 [reference compound]
induced toxicity (LDH release) ([9]; 10% Triton X-100 solution, apical, 24 h, high control): 100%
